Here are results for nine compounds from ChEMBL document CHEMBL1201862, “PubChem BioAssay data set” (2004).

Common to all, as to test: NCI tumour cell line growth inhibition, 48 h
Assay [1] has as its system IGROV-1.
The subject of assay [2] is HCC 2998.
Assay [3] concerns HCT-116.
Assay [4] concerns HCT-15.
The test system of assay [5] is OVCAR-5.
Assay [6] has as its system CAKI-1.
Assay [7] deals with SK-OV-3.
Assay [8] relates to SNB-75.
Assay [9] concerns NCI-H226.
The test system of assay [10] is K562.
The subject of assay [11] is TK-10.
In assay [12] the test system is M14.
Assay [13] concerns CCRF-CEM.
For assay [14], the system named is DU-145.
The test system of assay [15] is T47D.
Assay [16] has as its system MDA-MB-231.
The subject of assay [17] is A498.
Assay [18] deals with MDA-MB-435.
The subject of assay [19] is MDA-N.

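Growth conditions: 96-well plates. Treatment: test compound, 48 hours, 5 concentrations. Analysis: linear interpolation between bracketing concentrations; unreached endpoints set to highest concentration. GI50 marks 50% less growth.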 Calls of active or inactive are those of the source. No stated cut-off is given here; in the data, active = GI50 up to about 1.1 µM and inactive = higher.

Regarding `CCOC(=O)N1CCC(=O)C[C@@H]1C/C=C/P1(=O)O[C@H](c2ccccc2)C(C)N1C(C)C` (some centres not stated), the GI50 was > 100 µM (inactive) in assay [1]; > 100 µM (inactive) in assay [2]; > 100 µM (inactive) in [3]; > 100 µM in [4]; > 100 µM (inactive) in assay [5]; > 100 µM (inactive) in assay [6]. The GI50 in assay [7], in assay [8], in assay [9], in assay [10] and in assay [11] was > 100 µM (inactive) each time.
As for `CNC(=O)N1CN(c2ccccc2)C2(CCN(CCCC(=O)c3ccc(F)cc3)CC2)C1=O`, the GI50 in assay [1] is 19.5 µM (inactive); in assay [2], 7.82 µM (inactive); in assay [3], 7.59 µM (inactive); in assay [12], 16.5 µM (inactive); in assay [4] it was 15.5 µM; in [5], 11.7 µM (inactive). In addition, the GI50 was 24.8 µM (inactive) in assay [6]; 31.8 µM (inactive) in assay [7]; 29.3 µM (inactive) in assay [8]; 25.5 µM (inactive) in assay [9]; 13.9 µM (inactive) in assay [13]; 11.3 µM (inactive) in assay [14]. Moreover, the GI50 in assay [10] was 19.5 µM (inactive); in assay [11], 18 µM (inactive); in assay [15], 4.98 µM (inactive); in assay [16], 25.2 µM (inactive).
On to `CC(C)(C)OC(=O)N(CCCCNC(=O)C(F)(F)F)CCCNC(=O)C(F)(F)F`, for which the GI50 in [1] is > 100 µM (inactive); in assay [2], > 100 µM (inactive); in assay [3], > 100 µM (inactive); in assay [12], > 100 µM (inactive); in assay [4], > 100 µM; in [5], > 100 µM (inactive). For the same compound, the GI50 in assay [6], in assay [7], in assay [8], in [9], in assay [13] and in [17] was > 100 µM (inactive) in each case. The GI50 in assay [14], in assay [10], in [11], in [15], in assay [18] and in assay [16] was > 100 µM (inactive) each time.
With `C1COC2SC3=C(SC(=C4SC5=C(SCCS5)S4)S3)SC2O1` (configuration not stated), the GI50 in [1] is 77.6 µM (inactive); in [2], > 100 µM (inactive); in assay [3], > 100 µM (inactive); in [12] it was 94 µM (inactive); in assay [4], 8.49 µM; in assay [5], > 100 µM (inactive). The GI50 in assay [6] is > 100 µM (inactive); in assay [7] it was 72.3 µM (inactive); in assay [8], 71.1 µM (inactive); in [9], > 100 µM (inactive); in assay [13], > 100 µM (inactive); in assay [17] it was > 100 µM (inactive). Also, the GI50 is > 100 µM (inactive) in [14]; 73.1 µM (inactive) in [10]; > 100 µM (inactive) in assay [11]; 60.4 µM (inactive) in assay [15]; 4.07 µM (inactive) in assay [18]; > 100 µM (inactive) in [16].
With `COC1CCN(N(C)C)O1` (configuration not stated), the GI50 in [1] was > 100 µM (inactive); in assay [2], > 100 µM (inactive); in assay [3] it was > 100 µM (inactive); in assay [12] it was > 100 µM (inactive); in assay [4] it was > 100 µM; in assay [5], > 100 µM (inactive). In addition, the GI50 in assay [6], in [8], in assay [9], in assay [13], in [17] and in assay [14] was > 100 µM (inactive) in each case. In addition, the GI50 in assay [10], in [11], in assay [15], in assay [18] and in [16] was > 100 µM (inactive) in each case.
`c1ccc2cc3c(NC4=NCCO4)cccc3cc2c1`: the GI50 was 60.8 µM (inactive) in [1]; 1.79 µM (inactive) in assay [19]; 50 µM (inactive) in [3]; 34.3 µM (inactive) in [12]; > 100 µM in assay [4]; > 100 µM (inactive) in [5]. Besides, the GI50 in assay [6] was 52.5 µM (inactive); in assay [7] it was > 100 µM (inactive); in [8] it was 24.8 µM (inactive); in assay [9], 52.2 µM (inactive); in assay [13] it was 27.7 µM (inactive); in [17] it was 67.6 µM (inactive). Besides, the GI50 in assay [14] was 78.7 µM (inactive); in assay [10], 37.2 µM (inactive); in assay [11], 86.9 µM (inactive); in assay [18], 37.1 µM (inactive); in assay [16] it was 25.2 µM (inactive).
`CCN1CCC(C)OP1(=O)Cc1ccccc1` (configuration not stated): the GI50 was > 100 µM (inactive) in [1]; > 100 µM (inactive) in assay [2]; > 100 µM (inactive) in [3]; > 100 µM (inactive) in assay [12]; > 100 µM in assay [4]; > 100 µM (inactive) in assay [5]. Also, the GI50 in [6], in assay [7], in assay [9], in assay [14], in assay [10] and in assay [11] was > 100 µM (inactive) each time. Moreover, the GI50 in assay [15], in [18] and in assay [16] was > 100 µM (inactive) throughout.
For `COc1ccc2c(c1)CC[C@@H]1[C@@H]2CC[C@]2(C)C(=O)/C(=C/c3ccc(N(C)C)cc3)C[C@@H]12`, the GI50 in assay [2] was > 100 µM (inactive); in [3], 44 µM (inactive); in assay [12], 61.2 µM (inactive); in assay [4] it was > 100 µM; in assay [5] it was > 100 µM (inactive); in [6], 28.1 µM (inactive). For the same compound, the GI50 in assay [7] was 53.7 µM (inactive); in [8] it was 24.2 µM (inactive); in assay [17], 30.3 µM (inactive); in assay [14], > 100 µM (inactive); in assay [11] it was 33.2 µM (inactive); in assay [15], 44.1 µM (inactive). The results for the GI50 in assay [18] and in [16] were > 100 µM (inactive) and 55.8 µM (inactive), respectively.
Turning to `N#C/C(=C\c1cc(Cl)cc(Cl)c1)c1ccccn1`, the GI50 is 12.4 µM (inactive) in assay [1]; 10.1 µM (inactive) in assay [19]; 31 µM (inactive) in [2]; 34.3 µM (inactive) in [3]; 35.5 µM (inactive) in assay [12]; 4.75 µM in [4]. For the same compound, the GI50 in assay [5] was > 100 µM (inactive); in assay [6], 13.6 µM (inactive); in [7] it was 4.52 µM (inactive); in assay [8], 5.55 µM (inactive); in [9] it was 5.47 µM (inactive); in assay [13] it was 3.63 µM (inactive). For the same compound, the GI50 in assay [17] was 0.757 µM (active); in assay [14], 70.6 µM (inactive); in assay [10], 3.95 µM (inactive); in assay [11], 58.5 µM (inactive).
